Test results: publication PMC10982999, “Structure-Guided Design and Optimization of Covalent VHL-Targeted Sulfonyl Fluoride PROTACs” (Journal of Medicinal Chemistry, 2024)

Assays:
[1] = target: T1, VCB and FAM-conjugated HIF1α-derived peptide interaction (Homo sapiens, UniProt P40337); assay: Competitive fluorescence polarization (FP) assay, VCB / FAM-conjugated HIF1α-derived peptide; type: binding; details: 2 h incubation between VCB and compound; read-out: apparent IC50 (FP)
T1 construct: human VHL (UniPort entry P40337, residues 1 -213); 6xHis followed by TEV site (N, cleaved yes); made in house; host or cells: E. coli One Shot BL21(DE3)
Protocol: We next focused on developing a second generation covalent VHL binder with enhanced potency and occupancy.
Figure 2 (A) Structure of VHL-SF2. […] (E) Competition pull-down assay from live cells between VHL-SF2-Biotin and VHL-SF2. HEK293T cells were pretreated with DMSO or varying concentrations of VHL-SF2 for 2 h at 37 °C. The cells were lysed and treated with DMSO or VHL-SF2-Biotin (50 μM) for 2 h at room temperature. A pull-down with streptavidin beads was conducted, after which the protein was resolved on SDS/PAGE. VHL and loading control GAPDH levels were visualized by Western blotting.
Figure S3. (A) Gel-based VHL labelling of VHL-SF1-Biotin, and (B) VHL-SF2-Biotin. VCB protein was pre-treated with DMSO, VHL-SF1-Biotin or VHL-SF2-Biotin for 2 h at room temperature, after which protein was resolved on SDS -PAGE and visualised by Neutravidin […]
Figure S4. Dose-response of VHL-SF1 following a 2 h pre-incubation in the presence of VCB and FAM-conjugated HIF1α-derived peptide, assessed by fluorescence polarization. Data […]
Figure S5. (A) VCB was incubated with DMSO for 24 h and subjected to intact-protein LC-MS (VHL: 24784 Da). […]
Fluorescence polarization assay protocol […]
well plate and the plate was shaken for 1 min, before reading fluorescence polarization on a Perkin Elmer Envision 2101 plate reader (excitation 486 nm, emission 535 nm). […]

[2] = target: T2, BRD4 (HEK293 HiBiT-BRD4 Cln3 cells) (Homo sapiens, UniProt O60885); assay: BRD4 HiBiT degradation assay; type: cell-based
T2 construct: GSK; host or cells: HEK293 HiBiT-BRD4 Cln3
Protocol: Figure 3 (A) Structure of BRD-SF2. […] BRD4 and loading control GAPDH levels were visualized by Western blotting. […] (D) HEK293 HiBiT-BRD4 Cln3 cells were treated with epoxomicin (1 μM) for 3 h, followed by the respective PROTAC or VHL-SF2 dose-dependently (75–0.01 μM) for 18 h. […] (E) HEK293 HiBiT-BRD4 Cln3 cells were treated with MLN4924 (1 μM) for 3 h, followed by the respective PROTAC or VHL-SF2 dose-dependently (75–0.01 μM) for 18 h. […] (F) Structure of AR-VHL-SF2 and AR2-VHL-SF2. […] The data the show mean ± SEM (n = 3).
Cellular BRD4/AR HiBiT assay
The HiBiT tagged cells were seeded at 10,000 cells per well in a 384-well plate (Thermo Scientific, 164610) at 25 µL per well in DMEM media containing 10% FBS and incubated overnight. Compounds were dispensed using D300e Digital Dispenser (HP) and normalized to 0.1% DMSO. Cells were pre-treated with Epoxomicin or MLN4924 for 3 h before treatment or directly with the PROTAC degraders for 18 or 24 h. Nano -Glo HiBiT lytic detection assay was performed as described in the manufacturer protocol (Promega). 25 µL of premixed detection reagent was added to each well of the 384 well assay plate and incubated for 15 min on an orbital shaker (at 600 RPM), and luminescence was read using a PHERAstar FS plate reader (BMG Labtech). Corresponding background RLU values were subtracted from DMSO control values and the percentage of protein (%) of were then calculated against […]
DMSO-treated controls. […]

For Cc1cc([C@H](C(=O)N2C[C@H](S(=O)(=O)F)C[C@H]2C(=O)N[C@@H](CC(=O)OC(C)(C)C)c2ccc(-c3scnc3C)cc2)C(C)C)on1 [VHL-SF2, tert-Butyl (S)-3-((2S,4R)-4-(Fluorosulfonyl)-1-((R)-3-methyl-2-(3-methylisoxazol-5-yl)butanoyl)pyrr-olidine-2-carboxamido)-3-(4-(4-methylthiazol-5-yl)phenyl)propanoate], the IC50 [1] was 35 µM, the “effect on BRD4 levels” value ([2]; 18 h, 75 μM-1 pM) was “did not affect BRD4 levels” and the DC50 ([2]; read-out: BRD4 DC50) was greater than 75 µM.
